# Measured values published in patent US20240067603A1, “CUBANYL BIGUANIDE COMPOUNDS” (REGENTS OF THE UNIVERSITY OF MINNESOTA, priority 2020, published 2024).
# Tests used:
# MCF-7 cells [1] = assay: Oxygen consumption rate (OCR), Seahorse XFe, MCF-7; type: cell-based, human
# Description: FIGS. 3A-3B. Effects of DCB (FIG. 3B) and HCB (FIG. 3A) on MCF-7 cells respiration. MCF-7 cells were seeded at 25,000 cells/well into a 96-well XF96 cell microplate. Growth media was replaced with 150 μL metabolism assay media the next day and cells were incubated CO2 free for 1 hour before the measurement of oxygen consumption rate (OCR) every seven minutes by a Seahorse XFe analyzer. Drugs were injected into the media after the fifth measurement (indicated by time point A and the dashed line). Results are reported as mean of percent of base OCR (OCR of the fifth measurement)±S.D. (n=12 for DMSO and 16 for treatment groups).
# Measurement of oxygen consumption rate (OCR). Cells were maintained in growth medium consisting of 10% FBS at 37° C. with 5% CO2 and seeded at 25,000 cells per well in a 96-well XF96 cell culture microplates (Agilent, Santa Clara, CA). An 96 well XF sensor cartridge was hydrated and equilibrated with 200 ul calibrant in each well at 37° C. without CO2 overnight. […] OCRs were measured periodically and can be reported in pmoles/minute or normalized against baseline measurements before treatment.
# MCF-7 cells [2] = assay: TMRE mitochondrial membrane potential in MCF-7 cells; type: cell-based, human; details: 10 μM, FIGS. 4A-4B
# Description: FIG. 4A. Effect of HCB on mitochondrial cross membrane potential Δψ in MCF-7 cells. MCF-7 cells were seeded at 20,000 cells/well into a clear bottom black 96 well microplate. After treatments were added for 2 hours (FCCP control for 10 minutes), TMRE (tetramethylrhodamine, ethyl ester, Ex/Em 549/575) was added to a final concentration of 400 nM and incubation continued for additional 30 minutes. Media was removed and cells washed twice with PBS and 100 ul of PBS was added in the end. TMRE fluorescence was then measured with a plate reader. Results are reported as mean fluorescence intensity±S.D. (n=8, * indicates statistically significant difference from the DMSO control).
# FIG. 4B. Effect of DCB and HCB on mitochondrial trans-membrane potential Δψ in MCF-7 cells. […] TMRE fluorescence was then measured with a plate reader. Results are reported as mean fluorescence intensity±S.D. (n=8, * indicates statistically significant difference from the DMSO control).
# Mitochondrial cross membrane potential (Δψ) alteration in MCF-7 cells were measured by monitoring Δψ sensitive TMRE fluorescence intensity. […] TMRE fluorescence was then measured with a plate reader. Results are reported as mean fluorescence intensity±S.D. (n=8, * indicates statistically significant difference from the DMSO control).
# TMRE Δψm measurement. […] Fluorescence was read at Ex 549 nm/Em 575 nm. […]
# CYP3A4 = CYP3A4 (Homo sapiens, UniProt P08684); assay: Stability with recombinant human CYP3A4; type: in vitro ADME; design: purchased Corning; host or cells: insect cells (microsomes)
# Description: Stability of HCB with recombinant human CYP3A4 and CYP2C8 enzymes was evaluated. 10 μM HCB was tested wich CYP3A4 and 2C8 (200 pmol/L) (Table 8). NADPH (2 mM) was added as a cofactor. Total volume was 200 μL.
# HCB was incubated for 0, 30, or 60 min at 37° C. Incubations were quenched with 2 volumes of acetonitrile followed by centrifugation for 10 min at 16,000 g.
# Sequence of CYP3A4 (P08684 whole entry): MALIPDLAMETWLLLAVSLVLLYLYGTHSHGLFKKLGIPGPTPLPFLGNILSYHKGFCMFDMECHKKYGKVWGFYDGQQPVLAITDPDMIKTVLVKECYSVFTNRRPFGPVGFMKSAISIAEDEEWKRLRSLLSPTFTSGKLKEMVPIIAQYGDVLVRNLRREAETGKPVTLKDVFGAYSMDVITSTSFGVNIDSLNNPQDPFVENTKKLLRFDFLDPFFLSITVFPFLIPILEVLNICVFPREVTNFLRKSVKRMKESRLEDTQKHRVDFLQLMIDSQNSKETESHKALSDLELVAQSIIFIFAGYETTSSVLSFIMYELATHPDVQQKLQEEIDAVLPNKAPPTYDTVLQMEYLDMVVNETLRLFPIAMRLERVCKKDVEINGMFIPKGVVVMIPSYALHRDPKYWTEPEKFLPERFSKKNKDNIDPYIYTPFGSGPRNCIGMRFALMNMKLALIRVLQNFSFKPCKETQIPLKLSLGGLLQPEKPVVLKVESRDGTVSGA
smiles,measurement,setting,value
"CCCCCCNC(=N)NC(=N)NCC12C3C4C5C3C1C5C42 (centres unmarked) [HCB, Hexyl Cubanomethyl Biguanide]",effect on oxidative phosphorylation (OCR),"MCF-7 cells [1]; 10 μM, MCF-7 cells, FIGS. 3A-3B",inhibited oxidative phosphorylation
same,OCR Inhibition [HCB] (uM) v vs. control (P < 0.05),MCF-7 cells [1]; MCF-7,10 µM
same,effect on mitochondrial membrane potential,MCF-7 cells [2],inhibited the mitochondrial membrane potential
same,parent metabolite peak area after 60 min,"CYP3A4; 10 μM HCB, recombinant human CYP3A4, NADPH 2 mM",93.91%
same,degradation pathways,CYP3A4; recombinant human CYP3A4 and CYP2C8,"oxidation, dealkylation, and hydrogenation"
